Measured values from US20230131501A1, “THERAPEUTIC USES OF INHIBITORS OF THE RNA-BINDING PROTEIN HuR” (University of Kansas, priority 2020, published 2023).
Entries after “also recorded” stand apart in the source; their conditions may differ.

Key:
[1] = system: panel of cancer cell lines; experiment: Cytotoxicity assay, expanded panel of cell lines; assay type: cell-based
Experimental: (§1) The cytotoxicity of the tested compounds in several cancer cell lines (HCT116 β/w, MIAPaCa-2, and MDA-MB-231) was determined by a cytotoxicity assay, where the results are provided in Table 1. Cells were seeded in 96-well culture plates (5,000 cells/well) and treated with titrated compounds in triplicate. After 96 h incubation, cell growth medium was removed and proliferation reagent WST-8 (Sigma) was added to each well and incubated at 37° C. for 1-3 h. Absorbance was then measured with a plate reader at 450 nm with correction at 650 nm. The results were expressed as the percentage of absorbance of treated wells versus that of vehicle control. IC50, the drug concentration causing 50% growth inhibition, was calculated via sigmoid curve fitting using GraphPad Prism 5.0.
(§2) The assay was then utilized to assess cytotoxicity of KH-3 against an expanded panel of cell lines (including normal cell line WI-38), where FIGS. 4A-4C provide the results.

[2] = system: BxPC-3 cells; experiment: MTT cell viability; assay type: cell-based; settings: Homo sapiens; BxPC-3, 48 hours
Experimental: (§3) Pancreatic cancer cell lines were obtained from the American Type Culture Collection (Manassas, Va.). hTERT-HPNE cells (immortalized human pancreatic ductal epithelial cells) were donated by Dr. Anant at the University of Kansas Medical Center. MTT assay was used for cell viability detection, with starting cell number in 96-well plate of 3000/well (for 72 h treatment) or 5000/well (for 48 h treatment).
(§4) Pancreatic cancer cell lines with different endogenous HuR expression levels were treated with serial concentrations of KH-3 for 48 hours. KH-3 induced cytotoxicity in pancreatic cancer cells, with the sensitivity correlated to endogenous HuR protein levels (FIG. 30). MIA PaCa2 cells have the highest HuR protein abundance among the tested cell lines and were the most sensitive to HuR treatment (IC50=5 μM). […] BxPC-3 cells, another human pancreatic cancer cell line, have HuR expression level in the middle, and the IC50 of KH-3 was in the middle (10 μM). A non-cancerous human pancreatic ductal epithelial cell line (hTERT-HPNE) was tested under the same conditions. hTERT-HPEN cells have the lowest abundance of HuR protein compared to the cancer cells, and the cytotoxicity of KH-3 to these cells were minimal (IC50>>40 μM). There is an inverse correlation in the tested cell lines between the HuR expression levels and the sensitivity to KH-3 treatment (FIG. 30) (R=−0.71 by Pearson Tests).

[3] = system: PANC-1 cells; experiment: MTT cell viability; assay type: cell-based; settings: Homo sapiens; PANC-1, 48 hours
Experimental: as §3, §4

[4] = system: MIA PaCa2 cells; experiment: MTT cell viability; assay type: cell-based; settings: Homo sapiens, MIA PaCa-2; MIA PaCa2, 48 hours
Experimental: as §3, §4

[5] = system: MDA-MB-231; experiment: Cytotoxicity assay (WST-8); assay type: cell-based; settings: Homo sapiens, MDA-MB-231, 96 h, read-out: Cytotoxicity (IC50, μM) MDA-MB-231
Experimental: as §1, with “5.0. […]” for “5.0.”

[6] = system: normal cell line WI-38; experiment: Cytotoxicity assay, normal cell line; assay type: cell-based
Experimental: as §1, §2

[7] = target: T1, HuR protein bound to Msi1-Bi (Homo sapiens, UniProt Q15717); experiment: Pull-down assay #1, RNA immunoprecipitation with biotinylated Msi1 ARE oligo; assay type: cell-based; settings: cytoplasmic lysates of treated cells with HuR overexpression
T1 construct: endogenous in cells
T1 sequence (Q15717 2-326 limits assumed): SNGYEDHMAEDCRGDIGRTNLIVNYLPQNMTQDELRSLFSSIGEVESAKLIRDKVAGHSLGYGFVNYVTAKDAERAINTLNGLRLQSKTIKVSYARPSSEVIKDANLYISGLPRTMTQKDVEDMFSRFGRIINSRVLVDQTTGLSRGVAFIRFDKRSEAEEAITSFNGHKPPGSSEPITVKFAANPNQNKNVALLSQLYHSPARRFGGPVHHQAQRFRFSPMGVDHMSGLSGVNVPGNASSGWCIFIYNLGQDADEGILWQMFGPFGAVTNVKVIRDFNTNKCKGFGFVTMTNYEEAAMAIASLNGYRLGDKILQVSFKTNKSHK
Experimental: Cells with HuR overexpression were treated with compounds, then the cell cytoplasmic lysates were collected using NE-PER Nuclear and Cytoplasmic Extraction Kit (Thermo Scientific), and subsequently to the cell cytoplasmic lysates were added the biotinylated target ARE oligo from Msi1 mRNA (Msi1-Bi). Following this, streptavidin beads were added to pull down HuR protein bound to Msi1-Bi. Compounds of the present technology blocked the HuR pull-down by the biotinylated ARE oligo, illustrating inhibition of the Hur-mRNA interaction. Unlabeled target AREs were used as positive control. FIG. 6A provides results with KH-3, illustrating KH-3 blocked Msi1-Bi RNA mediated pull-down of HuR protein up to 24%.

[8] = system: 2LMP subclone of MDA-MB-231, lung metastasis; experiment: Experimental metastasis model (2LMP, lung metastasis); assay type: in vivo, mice
Experimental: For the experimental metastasis model, Dr. Marc Lippman kindly gifted a 2LMP subclone that was generated from MDA-MB-231 and that formed lung metastasis in mice. 0.5×10^6 2LMP cells stably expressing luciferase in 0.3 mL DMEM were intravenously injected into tail veins of mice. Immediately following injection, mice were imaged by bioluminescence to assure wide distribution and quality of the initial injection. The mice were then randomized into two groups and treated with 50 mg/kg KH-3 or vehicle control via intraperitoneal injection five times per week for five weeks. Bioluminescence imaging was taken weekly to monitor the metastasis burden at lung. […] Imaging was then taken twice a week after first detectable signaling at lung. All animal experiments were carried out according to the protocol approved by the Institutional Animal Use and Care Committee at the University of Kansas.

[9] = system: HCT116 β/w; experiment: Cytotoxicity assay (WST-8); assay type: cell-based; settings: Homo sapiens, HCT-116, 96 h incubation
Experimental: (§5) Cells were seeded in 96-well culture plates (5,000 cells/well) and treated with titrated compounds in triplicate. After 96 h incubation, cell growth medium was removed and proliferation reagent WST-8 (Sigma) was added to each well and incubated at 37° C. for 1-3 h. Absorbance was then measured with a plate reader at 450 nm with correction at 650 nm. The results were expressed as the percentage of absorbance of treated wells versus that of vehicle control.

[10] = system: MIAPaCa-2; experiment: Cytotoxicity assay (WST-8); assay type: cell-based; settings: Homo sapiens, MIA PaCa-2, 96 h incubation
Experimental: as §5

[11] = system: hTERT-HPNE (non-cancerous human pancreatic ductal epithelial cell line); experiment: MTT cell viability, non-cancerous cells; assay type: cell-based; settings: 48 hours
Experimental: as §3, §4

[12] = 50 mg/kg i.p. five times per week for five weeks

CC(C)(C)c1ccc(S(=O)(=O)Nc2ccc3sc(/C=C/C(=O)NO)cc3c2)cc1 [KH-3]
cytotoxicity across a panel of cancer cell lines [1]: potent cytotoxicity
IC50 [2]: 10 µM
IC50 [3]: 25 µM
IC50 [4]: 5 µM
IC50 [5]: 4.15 µM
concentration until which not cytotoxic [6]: about 100 μM
blocking of Msi1-Bi RNA mediated pull-down of HuR protein [7]: up to 24%
median survival time [8, 12]: 81 days
median time to initiation of pulmonary metastases [8, 12]: 71 days
side effects [8, 12]: minor diarrhea in some mice; also recorded: Some mice had swollen abdomens starting the fourth week of treatment
metastasis rate (mice with pulmonary metastases at the end of experiment) ([8]; 50 mg/kg i.p. five times per week for five weeks, 7/9): 77.7%
weight gain ([8]; first 43 days of the experiment): gained weight similar to those in control group
IC50 [9]: 3.6 µM
IC50 [10]: 4.5 µM
IC50 [11]: > 40 µM
